Test results from US11311522B1 (Cavion, Inc., priority 2018, dated 2022).

Key:
[1] = in vivo; conditions: female, rat, po
[2] = test system: patients with schizophrenia; test: PN004: safety; assay type: in vivo, human
Description: The primary efficacy endpoint was the mean change from baseline in the Positive and Negative Syndrome Scale (PANSS) total score at Week 4; secondary efficacy endpoints included responder rates on the PANSS total score at Week 4 and the change from baseline in the Clinical Global Impressions—Severity of Illness Scale at Week 4. Safety was monitored by adverse events, laboratory evaluations, ECGs, Holter monitoring, vital signs, the Simpson-Angus Scale, the Barnes Akathisia Rating Scale, the Abnormal Involuntary Movement Scale, and the Columbia Suicide-Severity Rating scale (C-SSRS).

[3] = PN002/Part I: safety and tolerability; assay type: in vivo, human
Method: All adverse events were mild or moderate in intensity. No serious adverse events were reported. […] Treatment periods were separated by a minimum 1-week washout period after administration of the 2 mg dose in Period 1 and by a minimum 2-week washout after subsequent treatment periods. Clinical safety was monitored throughout the study by adverse events, clinical laboratory tests, vital signs, ECGs, and ECG telemetry. *The study was planned to include 8 subjects. A ninth subject was randomized to replace a subject who was discontinued after Period 1 (because of a prolonged QTc interval after administration of the 2 mg dose, which was considered by the investigator to be unrelated to the study drug). […] The most frequently reported adverse events were relaxation, fuzzy head, headache, lightheadedness, dizziness, and mood alteration, all of which were transient and generally mild or moderate in severity.

[4] = Study PN004, subjects with schizophrenia, BID Days 1 to 28, CX-8998 N = 86, Olanzapine N = 47

CC(C)c1ccc(CC(=O)N[C@H](C)c2ccc(OCC(F)(F)F)cn2)cc1 [CX-8998]
4.8 h: Tmax ([1]; 500 mg/kg/day)
10.5%: Subjects who discontinued treatment because of adverse events ([2]; in vivo)
5 (71.4) n (%): At least 1 adverse event ([3]; 2 mg)
4.7%: Subjects with dizziness and vertigo ([2]; in vivo)
2 (33.3) n (%): Dizziness ([3]; 8 mg) | Eye Disorders ([3]; 8 mg) | Feeling hot ([3]; 8 mg) | Fuzzy head ([3]; 8 mg)
2 (28.6) n (%): Headache ([3]; 2 mg) | Nervous System Disorders ([3]; 2 mg)
5 (83.3) n (%): At least 1 adverse event ([3]; 4 mg) | Nervous System Disorders ([3]; 4 mg)
94.6 µM·h: AUC ([1]; 100 mg/kg/day)
20.7 µM·h: AUC ([1]; 10 mg/kg/day)
3.4 h: Tmax ([1]; 10 mg/kg/day)
13 (15.1): Insomnia [2, 4]
1 (16.7) n (%): Eye Disorders ([3]; 4 mg) | Feeling of relaxation ([3]; 4 mg) | Floating feeling ([3]; 4 mg) | Fuzzy head ([3]; 4 mg) | Lightheadedness ([3]; 4 mg) | Nasal congestion ([3]; 4 mg) | Respiratory, Thoracic and Mediastinal Disorders ([3]; 4 mg) | Tiredness ([3]; 4 mg) | Vision blurred ([3]; 4 mg) | Breathing difficult ([3]; 8 mg) | Dizziness upon standing ([3]; 8 mg) | Dry throat ([3]; 8 mg) | Floating feeling ([3]; 8 mg)
3 (50.0) n (%): Headache ([3]; 4 mg) | Headache ([3]; 8 mg)
2 (2.3): Anxiety [2, 4] | Chronic pharyngitis [2, 4] | Dizziness [2, 4] | Headache [2, 4] | Rhinopharyngitis [2, 4] | Sinus tachycardia [2, 4] | Somnolence [2, 4]
41 (47.7): At least 1 adverse event [2, 4]
4 (66.7) n (%): Dry mouth ([3]; 8 mg) | Gastrointestinal Disorders ([3]; 8 mg)
0 n (%): Breathing difficult ([3]; 2 mg) | Dizziness ([3]; 2 mg) | Dizziness upon standing ([3]; 2 mg) | Dry mouth ([3]; 2 mg) | Dry throat ([3]; 2 mg) | Eye Disorders ([3]; 2 mg) | Feeling drunk ([3]; 2 mg) | Feeling hot ([3]; 2 mg) | Feeling of warmth ([3]; 2 mg) | Fuzzy head ([3]; 2 mg) | Lightheadedness ([3]; 2 mg) | Nasal congestion ([3]; 2 mg) | Paraesthesia of fingers ([3]; 2 mg) | Tiredness ([3]; 2 mg) | Vision blurred ([3]; 2 mg) | Visual disturbance ([3]; 2 mg) | Breathing difficult ([3]; 4 mg) | Dizziness ([3]; 4 mg) | Dizziness upon standing ([3]; 4 mg) | Dry mouth ([3]; 4 mg) | Dry throat ([3]; 4 mg) | Feeling drunk ([3]; 4 mg) | Feeling hot ([3]; 4 mg) | Feeling of warmth ([3]; 4 mg) | Paraesthesia of fingers ([3]; 4 mg) | Visual disturbance ([3]; 4 mg) | Feeling drunk ([3]; 8 mg) | Feeling of relaxation ([3]; 8 mg) | Feeling of warmth ([3]; 8 mg)
1 (14.3) n (%): Feeling of relaxation ([3]; 2 mg) | Floating feeling ([3]; 2 mg) | Gastrointestinal Disorders ([3]; 2 mg) | Respiratory, Thoracic and Mediastinal Disorders ([3]; 2 mg)
219 µM·h: AUC ([1]; 500 mg/kg/day)
3 (3.5): Schizophrenia [2, 4]
6 (100) n (%): At least 1 adverse event ([3]; 8 mg)
